Results taken from patent US8466186B2, “Compounds” (Boehringer Ingelheim International GmbH, priority 2010, dated 2013).

Biological target: T1, recombinant human mPGES-1 (Homo sapiens, UniProt O14684)
T1 construct: made in house; host or cells: Rosetta E. coli (membrane/microsome fraction)
T1 sequence (O14684 1-152): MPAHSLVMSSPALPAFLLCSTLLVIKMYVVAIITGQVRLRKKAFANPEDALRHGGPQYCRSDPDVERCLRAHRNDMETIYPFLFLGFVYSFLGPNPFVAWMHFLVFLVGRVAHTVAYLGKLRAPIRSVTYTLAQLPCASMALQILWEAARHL
Assay: Assay A: mPGES-1 enzyme assay (HTRF detection of PGE2)
Format: biochemical
Conditions: biological assay A; microsomes from E. coli expressing recombinant human mPGES-1; read-out: mPGES-1 inhibitory effect IC50
Excerpt: The aim of this assay is to determine the affinity of a test compound for the mPGES-1 enzyme.
• 1. Riendeau, D., R. Aspiotis, D. Ethier, Y. Gareau, E. Grimm, J. Guay, S. Guiral, H. Juteau, J. Mancini, N. Methot, J. Rubin, and R. Friesen, Inhibitors of the inducible microsomal prostaglandin E2 synthase (mPGES-1) derived from MK-886. Bioorg Med Chem Lett, 2005. 15(14): p. 3352-3355. • 2. Cote, B., L. Boulet, C. Brideau, D. Claveau, D. Ethier, R. Frenette, M. Gagnon, A. Giroux, J. Guay, S. Guiral, J. Mancini, E. Martins, F. Masse, N. Methot, D. Riendeau, J. Rubin, D. Xu, H. Yu, Y. Ducharme, and R. Friesen, Substituted phenanthrene imidazoles as potent, selective, and orally active mPGES-1 inhibitors. Bioorg Med Chem Lett, 2007. 17(24): p. 6816-6820. Assay A: mPGES-1 Enzyme Assay List of Reagents Used: • Glutathione (Sigma, G-4251) • Freeze culture in Rosetta E coli expression strain. • LB growth media with Ampillicillin (Amp) final concentration in culture 50 μg/mL • Chloroamphenicol stock 34 mg/mL (chloro) final concentration in culture 34 μg/mL • Sterile growth flasks for 500 mL-1 liter cultures • 0.1 M KP, buffer pH 7.4 • 9.25% HCl • PGH2 (0.25 mM) • Fe (II) Cl2 tetrahydrate, 99% (Sigma, 220229) • 384-well plate with compounds • 96-well plate, polypropylene (Thermo fast 96 skirted VWR) • 384-well plate polypropylene PCR plate (Greiner 785201) • Greiner 384-well plate pp (In vitro cat. no. 781280) • Adhesive sealing film for 96-well plates (Sigma-Aldrich) • Aluminium foil (PCR foil, 310-0030-127-471 from Labora) • PBS (GIBCO 14040) • Prostaglandin E2 Assay (Cisbio, cat. no. 62P2APEC) • Biomek FX robot (Beckman Coulter) • Biomek NX robot (Beckman Coulter) • Multidrop; micro or combi (ThermoLabsystems) • Plate reader: Safire2 (Tecan)
Microsomes from Rosetta E. coli bacteria expressing recombinant human mPGES-1 can be derived as described below:
Inoculate 5 mL LB with Amp and Chloro with bacteria from freeze culture. Incubate overnight at 37° C. with 200 rpm. Thereafter, inoculate 500-800 mL LB containing Amp and Chloro with the 5 mL on culture and grow to OD640 of 0.6-0.8. Chill the culture to +4° C. before induction. Induce the culture with IPTG at a final concentration of 400 μM. Express the protein at room temp 18-23° C. with 200 rpm shaking overnight.
The following steps can be performed on the following day: • 1. Spin down the cells in 250 mL centrifuge flasks for 15 min at 7000 rpm • 2. Dissolve the pellet from 250 mL culture in 12.5 mL homogenization buffer • 3. Disintegrate the cells by sonication, 4×10 seconds at 35% amplitude • 4. Add 2.5 mL MgCl2 (100 mM) and DNase 12.5 μL (0.8 mg/mL) and incubate on ice for 30 min • 5. Spin down the bacteria debris and save the supernatant, 7000 rpm for 15 min • 6. Isolate the protein containing membranes in the supernatant by ultracentrifugation 45000×g for 1 hour. • 7. Discard the supernatant and dissolve the pellet in 20 mM KPi buffer and aliquot the enzyme and store aliquots at −80° C.
Before each experiment is performed an aliquot of the enzyme is thawed and it can then be dissolved in 0.1 M KP, pH 7.4 buffer containing 2.5 mM GSH. 50 μL of this enzyme solution is subsequently dispensed in a 384-well plate at room temperature. 0.5 μL of the inhibitor dissolved in DMSO is thereafter added to each well and incubated for 25 minutes at room temperature. Subsequently, 2 μL of PGH2 dissolved in an appropriate solvent is added to each well and after one minute at room temperature, the acidified stop solution containing FeCl2 is added. 4 μL of the total volume is transferred to a separate plate and diluted 750-fold in two separate steps before quantification of PGE2.
In order to quantitate the amount of PGE2 that has been formed, a homogenous time resolved fluorescent (HTRF) detection of PGE2 can be performed by the use of a commercially available kit from CisBio essentially according to the manufacturer's protocol. […]

SMILES	IC50 [nM]
CC(=O)N1CCN(c2cc3[nH]c(Nc4cc(CNC(=O)C5(C(F)(F)F)CC5)ccc4Cl)nc3cc2Cl)CC1 [Example 74]	144
CC(C)(C)C(=O)NCc1ccc(Cl)c(Nc2nc3cc(Cl)c(N4CCC(C#N)C4)cc3[nH]2)c1 (stereo not shown) [Example 8, N-{4-Chloro-3-[5-chloro-6-(3-cyano-pyrrolidin-1-yl)-1H-benzimidazol-2-ylamino]-benzyl}-2,2-dimethyl-propionamide]	106
Cn1c(Nc2cc(CNC(=O)C3(C)COC3)ccc2Cl)nc2cc(Cl)c(N3CCCC(C(F)(F)F)C3)cc21 (stereo not shown) [Example 66]	10
Cn1c(Nc2cc(CNC(=O)C(C)(O)C(F)(F)F)ccc2Cl)nc2cc(Cl)c(N3CCCC(C(F)(F)F)C3)cc21 (stereo not shown) [Example 14]	4.8
CC(C)(C(=O)NCc1ccc(Cl)c(Nc2nc3cc(N4CCCC4)ccc3[nH]2)c1)C(F)(F)F [Example 17]	24
Cn1c(Nc2cc(CNC(=O)c3c(F)cccc3Cl)ccc2C(F)(F)F)nc2cc(Cl)c(N3CCC(C(F)(F)F)CC3)cc21 [Example 103]	2
CC1(C(=O)NCc2ccc(Cl)c(Nc3nc4ccc(N5CCOCC5)cc4[nH]3)c2)CCCCC1 [Example 119]	> 100
Cn1c(Nc2cc(CNC(=O)C3(C(F)(F)F)CC3)c(F)cc2Cl)nc2cc(Cl)c(N3CCC(C)(C)CC3)cc21 [Example 115]	9.2
COC[C@@H]1CCCN1c1cc2[nH]c(Nc3cc(CNC(=O)C4(C(F)(F)F)CC4)ccc3Cl)nc2cc1Cl [Example 133, (S)—N-{4-Chloro-3-[5-chloro-6-(2-methoxymethyl-pyrrolidin-1-yl)-1H-benzo[d]imidazol-2-ylamino]benzyl}-1-trifluoromethyl-cyclopropanecarboxamide]	25
CCC(C)(CC)C(=O)NCc1ccc(Cl)c(Nc2nc3cc(N4CCCC4)ccc3[nH]2)c1 [Example 16]	15
Cn1c(Nc2cc(CNC(=O)C(N)C(F)(F)F)ccc2Cl)nc2cc(Cl)c(N3CCCC(C(F)(F)F)C3)cc21 (stereo not shown) [Example 65]	15
Cn1c(Nc2c(Cl)ccc(CNC(=O)C(C)(C)C)c2Cl)nc2cc(Cl)c(N3CCC(C(F)(F)F)CC3)cc21 [Example 5, N-{2,4-Dichloro-3-[5-chloro-1-methyl-6-(4-trifluoromethyl-piperidin-1-yl)-1H-benzimidazol-2-ylamino]-benzyl}-2,2-dimethyl-propionamide]	3.8
CN1CCN(c2cc3[nH]c(Nc4cc(CNC(=O)C5(C)CCCCC5)ccc4Cl)nc3cc2Cl)CC1 [Example 120]	266
CN(C)C(=O)C1CCCN1c1cc2[nH]c(Nc3cc(CNC(=O)C(C)(C)C)ccc3Cl)nc2cc1Cl (stereo not shown) [Example 6, N-{4-Chloro-3-[5-chloro-6-(2-dimethylcarbamoyl-pyrrolidin-1-yl)-1H-benzimidazol-2-ylamino]-benzyl}-2,2-dimethyl-propionamide]	215
Cn1c(Nc2cc(CNC(=O)C3(C(F)(F)F)CC3)ccc2Cl)nc2cc(F)c(N3CCC(C)(C)CC3)c(F)c21 [Example 85]	20
Cn1c(Nc2cc(CNC(=O)C3(C(F)(F)F)CC3)ccc2Cl)nc2cc(Cl)c(N3CCN(c4ccccc4)CC3)cc21 [Example 90]	2.2
CN(C)CCn1c(Nc2cc(CNC(=O)C3(C(F)(F)F)CC3)ccc2Cl)nc2cc(Cl)c(N3CCC(C(F)(F)F)CC3)cc21 [Example 80]	54
O=C(NCc1ccc(Cl)c(Nc2nc3cc(Cl)c(N4CCC(C(F)(F)F)CC4)cc3n2CC(F)(F)F)c1)C1(C(F)(F)F)CC1 [Example 89]	6.1
COC[C@@H]1CCCN1c1cc2c(cc1Cl)nc(Nc1cc(CNC(=O)C3(C(F)(F)F)CC3)ccc1Cl)n2C [Example 126]	6.7
N#Cc1cc2nc(Nc3cc(CNC(=O)C4(C(F)(F)F)CC4)ccc3Cl)[nH]c2cc1N1CCCC1 [Example 127]	26
Cn1c(Nc2cc(CNC(=O)C(C)(F)F)ccc2Cl)nc2cc(Cl)c(N3CCN(c4ccc(C(F)(F)F)cc4)CC3)cc21 [Example 96]	4.1
Cn1c(Nc2cc(CNC(=O)C3(C(F)(F)F)CC3)ccc2Cl)nc2ccc(N3CCCC3)cc21 [Example 132]	124
